What was measured:
[1] = target: T1, Aurora A (Homo sapiens, UniProt O14965); assay: IC50 determination for inhibitors of Aurora A (96 MTP-ELISA); type: biochemical; conditions: His4-tagged full-length Aurora A 250 ng/ml, PKB-GSK2 200 nM, ATP 4 μM, 90 min at room temperature, read-out: IC50 Aurora A kinase inhibition
T1 construct: C-terminally Histidine4 (His4)-tagged Aurora A full-length protein
T1 sequence (O14965 1-403): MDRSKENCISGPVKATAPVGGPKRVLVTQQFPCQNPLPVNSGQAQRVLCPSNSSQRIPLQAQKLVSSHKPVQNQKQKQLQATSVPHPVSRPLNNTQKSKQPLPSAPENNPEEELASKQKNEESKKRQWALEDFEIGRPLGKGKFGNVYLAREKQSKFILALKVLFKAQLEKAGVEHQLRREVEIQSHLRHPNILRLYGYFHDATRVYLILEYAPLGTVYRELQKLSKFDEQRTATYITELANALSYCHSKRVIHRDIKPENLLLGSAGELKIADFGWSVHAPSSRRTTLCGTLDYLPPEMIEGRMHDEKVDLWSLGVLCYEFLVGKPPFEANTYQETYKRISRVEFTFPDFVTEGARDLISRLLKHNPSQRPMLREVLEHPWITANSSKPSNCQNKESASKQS

[2] = system: HCT 116 cells; assay: CellTiter-Glo assay in HCT 116 cells; type: cell-based, human; conditions: Homo sapiens, HCT-116, 120 h, 5 days incubation, 30 μM to 0.0015 μM
Excerpt: CellTiter-Glo™ Assay in HCT 116 Cells
The CellTiter-Glo™ Luminescent Cell Viability Assay (Promega) is a homogeneous method of determining the number of viable cells in culture based on quantitation of the ATP present, which signals the presence of metabolically active cells.
HCT 116 cells (human colon carcinoma, ATCC-No. CCl-247) were cultivated in RPMI 1640 medium with GlutaMAX™ I (Invitrogen, Cat-No. 61870-010), 2.5% Fetal Calf Serum (FCS, Sigma Cat-No. F4135 (FBS)); 100 Units/ml penicillin/100 μg/ml streptomycin (=Pen/Strep from Invitrogen Cat. No. 15140). For the assay the cells were seeded in 384 well plates, 1000 cells per well, in the same medium. The next day the test compounds were added in various concentrations ranging from 30 μM to 0.0015 μM (10 concentrations, 1:3 diluted). After 5 days the CellTiter-Glo™ assay was done according to the instructions of the manufacturer (CellTiter-Glo™ Luminescent Cell Viability Assay, from Promega). In brief: the cell-plate was equilibrated to room temperature for approximately 30 minutes and than the CellTiter-Glo™ reagent was added. The contents were carefully mixed for 15 minutes to induce cell lysis. After 45 minutes the luminescent signal was measured in Victor 2, (scanning multiwell spectrophotometer, Wallac).
1st. Day: • Medium: RPMI 1640 with GlutaMAX™ I (Invitrogen, Cat-Nr. 61870), 5% FCS (Sigma Cat.-No. F4135), Pen/Strep (Invitrogen, Cat No. 15140). • HCT116 (ATCC-No. CCl-247): 1000 cells in 60 μl per well of 384 well plate (Greiner 781098, μClear-plate white) • After seeding incubate plates 24 h at 37° C., 5% CO2
2nd. Day: Induction (Treatment with Compounds, 10 Concentrations):
In order to achieve a final concentration of 30 μM as highest concentration 3.5 μl of 10 mM compound stock solution were added directly to 163 μl media. Then step e) of the dilution procedure described below, was followed.

SMILES	IC50 [1] [µM]	IC50 [2] [µM]
Cc1cc(Nc2nn(C(C)C)c(=O)c3cc(N(C)Cc4cccnc4)ccc23)n[nH]1 [Example I-3, 2-Isopropyl-4-(5-methyl-1H-pyrazol-3-ylamino)-7-(methyl-pyridin-3-ylmethyl-amino)-2H-phthalazin-1-one]	0.001 to 0.1	0.1 to 10
Cc1cc(Nc2nn(C(C)C)c(=O)c3cc(N(C)Cc4ccccn4)ccc23)n[nH]1 [Example I-4, 2-Isopropyl-4-(5-methyl-1H-pyrazol-3-ylamino)-7-(methyl-pyridin-2-ylmethyl-amino)-2H-phthalazin-1-one]	0.001 to 0.1	0.1 to 10
Cc1cc(Nc2nn(C(C)C)c(=O)c3cc(N(C)C(=O)NC(C)C)ccc23)n[nH]1 [Example I-6, 3-Isopropyl-1-[3-isopropyl-1-(5-methyl-1H-pyrazol-3-ylamino)-4-oxo-3,4-dihydro-phthalazin-6-yl]-1-methyl-urea]	0.001 to 0.1	0.1 to 10
CNC(=O)Nc1ccc2c(Nc3cc(C)[nH]n3)nn(C(C)C)c(=O)c2c1 [Example I-13, 1-[3-Isopropyl-1-(5-methyl-1H-pyrazol-3-ylamino)-4-oxo-3,4-dihydro-phthalazin-6-yl]-3-methyl-urea]	0.001 to 0.1	0.1 to 10
Cc1cc(Nc2nn(C(C)C)c(=O)c3cc(N(C)C(=O)OC(C)(C)C)ccc23)[nH]n1 [Example I-14, [3-Isopropyl-1-(5-methyl-2H-pyrazol-3-ylamino)-4-oxo-3,4-dihydro-phthalazin-6-yl]-methyl-carbamic acid tert-butyl ester]	0.001 to 0.1	0.1 to 10
COCc1ccc2c(Nc3cc(C)[nH]n3)nn(C(C)C)c(=O)c2c1 [Example K-1, 2-Isopropyl-7-methoxymethyl-4-(5-methyl-1H-pyrazol-3-ylamino)-2H-phthalazin-1-one]	0.001 to 0.1	0.1 to 10
Cc1cc(Nc2nn(C(C)C)c(=O)c3cc(CN4CCOCC4)ccc23)n[nH]1 [Example L-2, 2-Isopropyl-4-(5-methyl-1H-pyrazol-3-ylamino)-7-morpholin-4-ylmethyl-2H-phthalazin-1-one]	0.001 to 0.1	0.1 to 10
Cc1cc(Nc2nn(C(C)C)c(=O)c3cc(C(=O)N4CCOCC4)ccc23)n[nH]1 [Example M-2, 2-Isopropyl-4-(5-methyl-1H-pyrazol-3-ylamino)-7-(morpholine-4-carbonyl)-2H-phthalazin-1-one]	0.001 to 0.1	0.1 to 10
CCN(CC)C(=O)c1ccc2c(Nc3cc(C)[nH]n3)nn(C(C)C)c(=O)c2c1 [Example M-3, 3-Isopropyl-1-(5-methyl-1H-pyrazol-3-ylamino)-4-oxo-3,4-dihydro-phthalazine-6-carboxylic acid diethylamide]	0.001 to 0.1	0.1 to 10
CC(=O)N1CCN(C(=O)c2ccc3c(Nc4cc(C)[nH]n4)nn(C(C)C)c(=O)c3c2)CC1 [Example M-7, 7-(4-Acetyl-piperazine-1-carbonyl)-2-isopropyl-4-(5-methyl-1H-pyrazol-3-ylamino)-2H-phthalazin-1-one]	0.001 to 0.1	10 to 100
COC(=O)c1ccc2c(Nc3cc(C)[nH]n3)nn(C(C)C)c(=O)c2c1 [Example M-8, 3-Isopropyl-1-(5-methyl-1H-pyrazol-3-ylamino)-4-oxo-3,4-dihydro-phthalazine-6-carboxylic acid methyl ester]	0.001 to 0.1	0.1 to 10
Cc1cc(Nc2nn(C(C)C)c(=O)c3cc(CO)ccc23)n[nH]1 [Example M-9, 7-Hydroxymethyl-2-isopropyl-4-(5-methyl-1H-pyrazol-3-ylamino)-2H-phthalazin-1-one]	0.001 to 0.1	0.1 to 10
Cc1cc(Nc2nn(C(C)C)c(=O)c3ccc(CO)cc23)n[nH]1 [Example M-10, 6-Hydroxymethyl-2-isopropyl-4-(5-methyl-1H-pyrazol-3-ylamino)-2H-phthalazin-1-one]	0.1 to 1	0.1 to 10
Cc1cc(Nc2nn(C(C)C)c(=O)c3cc(C(N)=O)ccc23)n[nH]1 [Example N-1, 3-Isopropyl-1-(5-methyl-1H-pyrazol-3-ylamino)-4-oxo-3,4-dihydro-phthalazine-6-carboxylic acid amide]	0.001 to 0.1	0.1 to 10
COCCn1nc(Nc2cc(C)n[nH]2)c2ccccc2c1=O [Example O-1, 2-(2-Methoxyethyl)-4-(5-methyl-2H-pyrazol-3-ylamino)-2H-phthalazin-1-one]	0.1 to 1	10 to 100
Cc1cc(Nc2nn(-c3ccc(C(C)C)cc3)c(=O)c3ccccc23)[nH]n1 [Example P-1, 2-(4-Isopropyl-phenyl)-4-(5-methyl-2H-pyrazol-3-ylamino)-2H-phthalazin-1-one]	0.001 to 0.1	0.1 to 10
CCC(C)c1ccc(-n2nc(Nc3cc(C)n[nH]3)c3ccccc3c2=O)cc1 (centres unmarked) [Example P-2, 2-(4-sec-Butyl-phenyl)-4-(5-methyl-2H-pyrazol-3-ylamino)-2H-phthalazin-1-one]	0.001 to 0.1	10 to 100
Cc1cc(Nc2nn(-c3cccc(C(F)(F)F)c3)c(=O)c3ccccc23)n[nH]1 [Example R-1, 4-(5-Methyl-1H-pyrazol-3-ylamino)-2-(3-trifluoromethyl-phenyl)-2H-phthalazin-1-one]	0.001 to 0.1	0.1 to 10
Cc1cc(Nc2nn(-c3ccccc3Cl)c(=O)c3ccccc23)n[nH]1 [Example R-4, 2-(2-Chloro-phenyl)-4-(5-methyl-1H-pyrazol-3-ylamino)-2H-phthalazin-1-one]	0.001 to 0.1	0.1 to 10
CNC(=O)c1ccc(-n2nc(Nc3cc(C)[nH]n3)c3ccccc3c2=O)cc1 [Example S-1, N-Methyl-4-[4-(5-methyl-1H-pyrazol-3-ylamino)-1-oxo-1H-phthalazin-2-yl]-benzamide]	0.1 to 1	0.1 to 10
Cc1cc(Nc2nn(-c3ccc(NC(=O)C(C)(C)C)cc3)c(=O)c3ccccc23)n[nH]1 [Example T-3, 2,2-Dimethyl-N-{4-[4-(5-methyl-1H-pyrazol-3-ylamino)-1-oxo-1H-phthalazin-2-yl]-phenyl}-propionamide]	0.1 to 1	0.1 to 10
Cc1cc(Nc2nn(-c3ccc(NC(=O)c4ccccc4)cc3)c(=O)c3ccccc23)n[nH]1 [Example T-4, N-{4-[4-(5-Methyl-1H-pyrazol-3-ylamino)-1-oxo-1H-phthalazin-2-yl]-phenyl}-benzamide]	0.1 to 1	0.1 to 10
Cc1cc(Nc2nn(-c3ccc(Nc4ccccc4)cc3)c(=O)c3ccccc23)n[nH]1 [Example U-1, 4-(5-Methyl-1H-pyrazol-3-ylamino)-2-(4-phenylamino-phenyl)-2H-phthalazin-1-one]	0.001 to 0.1	0.1 to 10
Cc1cc(Nc2nn(-c3ccc(N4CCOCC4)cc3)c(=O)c3ccccc23)n[nH]1 [Example U-2, 4-(5-Methyl-1H-pyrazol-3-ylamino)-2-(4-morpholin-4-yl-phenyl)-2H-phthalazin-1-one]	0.001 to 0.1	0.1 to 10
Cc1cc(Nc2nn(-c3ccc(N4CCCCC4)cc3)c(=O)c3ccccc23)[nH]n1 [Example V-1, 4-(5-Methyl-2H-pyrazol-3-ylamino)-2-(4-piperidin-1-yl-phenyl)-2H-phthalazin-1-one]	0.001 to 0.1	0.1 to 10
Cc1cc(Nc2nn(-c3ccc(OC(F)(F)F)cc3)c(=O)c3ccccc23)n[nH]1 [Example W-2, 4-(5-Methyl-1H-pyrazol-3-ylamino)-2-(4-trifluoromethoxy-phenyl)-2H-phthalazin-1-one]	0.001 to 0.1	0.1 to 10
Cc1cc(Nc2nn(-c3ccc([N+](=O)[O-])cc3)c(=O)c3ccccc23)n[nH]1 [Example W-3, 4-(5-Methyl-1H-pyrazol-3-ylamino)-2-(4-nitro-phenyl)-2H-phthalazin-1-one]	0.001 to 0.1	10 to 100
Cc1cc(Nc2nn(-c3ccncc3)c(=O)c3ccccc23)n[nH]1 [Example X-1, 4-(5-Methyl-1H-pyrazol-3-ylamino)-2-pyridin-4-yl-2H-phthalazin-1-one]	0.1 to 1	0.1 to 10

Reference: patent US7226923B2, “Phthalazinone derivatives” (Hoffman-La Roche Inc., priority 2004, dated 2007)
